Data as given in paper PMC9026172, “Pharmacodynamics, Network Pharmacology, and Pharmacokinetics of Chinese Medicine Formula 9002A in the Treatment of Alzheimer’s Disease” (Frontiers in Pharmacology, 2022).
Like-named read-outs stand apart in the source and are kept apart here.

Key:
[1] = Absorbed constituents and pharmacokinetics in rat plasma after Formula 9002A (UPLC-QTof-MS); conditions: for half-life: SD, rat; for Fold increase of mean residence time after Formula 9002A vs monomer: vs administration of a monomer; for Fold increase of half-life after Formula 9002A vs monomer: vs intragastric or intravenous monomer from literature
Experimental: The supernatant were obtained and concentrated, then dissolved with 50% methanol–water at 4°C for LC-MS/MS analysis.
Waters Xevo G2-XS QTof-MS and Masslynx software were used to acquire LC-MS/MS raw data. Chromatographic separation on the Waters Acquity UPLC HSS T3 column was performed on the samples. The mobile phases consisted of (A) 0.1% formic acid in water and (B) acetonitrile. […] The flow rate was set at 0.3 ml/min. The temperatures of the column and the auto sampler were maintained at 40 and 4°C, respectively. The injection volume was 5 μl.
MS conditions: positive and negative ion electrospray modes were both used. Capillary voltages were set at 3 kV for the positive mode and 2.5 kV for the negative mode. Source temperature was set as 100 °C. Nitrogen was used as the nebulizer and auxiliary gas; flow rates and temperature of desolvation gas were 1,000 L/h and 400°C, respectively. The range of data acquisition was from 50 to 1,000 m/z, and the scan time was set to 0.2 s. MS^E analysis was performed with 6 eV for the low collision energy scan and 35 eV for the high collision energy scan.
The absorbed components were identified by the exact molecular mass, molecular formula, and MS^2 fragment data compared with the standard substances and literature data. The DAS 3.3.0 software was used for calculating the terminal elimination half-life (t1/2) and mean residence time (MRT).

[2] = test system: Aβ deposition and glial cell activation in the brain; design: method as in Hu et al. (2014); conditions: transgenic mice; ref Hu et al. (2014); cited from earlier work
Nrf2 and HO-1 = test system: Nrf2 and HO-1; design: method as in Hindam et al., 2014; conditions: streptozotocin-induced cognitive dysfunction; ref Hindam et al., 2014; cited from earlier work
3xTg AD mice = test system: 3xTg AD mice; design: method as in Liu et al., 2013; conditions: after 8 months of treatment; ref Liu et al., 2013; cited from earlier work
[3] = design: method as in Naseri-Nosar and Ziora, 2018; conditions: ref Naseri-Nosar and Ziora, 2018, cited from earlier work
[4] = test system: tight junction proteins (such as claudin-5 and occludin); design: method as in Gibson et al., 2014; conditions: by inhibiting the activation of MMP-9; ref Gibson et al., 2014; cited from earlier work

OCc1ccc(O[C@@H]2O[C@H](CO)[C@@H](O)[C@H](O)[C@H]2O)cc1 [gastrodin]
half-life ([1]; in vivo): 2.58 h | Fold increase of mean residence time after Formula 9002A vs monomer ([1]; plasma): ~2 fold | Fold increase of half-life after Formula 9002A vs monomer ([1]; plasma): ~2 fold | Aβ deposition and glial cell activation in the brain [2]: significantly reduce Aβ deposition and glial cell activation

O=c1ccc2ccc(O)cc2o1 [umbelliferone]
Content of Nrf2 and HO-1 (Nrf2 and HO-1): significantly increase

NC(=O)c1cccnc1 [niacinamide]
Cognitive function (3xTg AD mice): could be improved

OC[C@H]1O[C@@H](OCCc2ccc(O)cc2)[C@H](O)[C@@H](O)[C@@H]1O [salidroside]
half-life ([1]; plasma): 2.12 h | Fold increase of mean residence time after Formula 9002A vs monomer ([1]; plasma): ~2 fold | Fold increase of half-life after Formula 9002A vs monomer ([1]; plasma): 2- to 3 fold | half-life ([3]; gavage of salidroside monomer): 0.64 h | half-life ([3]; intravenous injection of salidroside monomer): 1.16 h | Tight junction proteins / BBB damage [4]: reversed the decrease in tight junction proteins
